In the NIST ThermoML archive (doi:10.1021/je050209y):
Numbers after ± are expanded uncertainties.

Legend:
[1] = xn = mol fraction of the nth substance listed; conditions: 298.15 K, 101.33 kPa, Liquid
[2] = 298.15 K; 101.33 kPa; Liquid

CNC=O [N-methylformamide] + CN(C)C=O
mass density ([1]; x2 = 0.0497): 995.4 ± 0.7 kg/m3 | viscosity ([1]; x2 = 0.0497): 1.618 ± 0.025 mPa·s | mass density ([1]; x2 = 0.0997): 991.9 ± 0.7 kg/m3 | viscosity ([1]; x2 = 0.0997): 1.524 ± 0.024 mPa·s | mass density ([1]; x2 = 0.2002): 985.5 ± 0.8 kg/m3 | viscosity ([1]; x2 = 0.2002): 1.373 ± 0.022 mPa·s | mass density ([1]; x2 = 0.2999): 979.4 ± 0.8 kg/m3 | viscosity ([1]; x2 = 0.2999): 1.274 ± 0.02 mPa·s | mass density ([1]; x2 = 0.4001): 973.6 ± 0.9 kg/m3 | viscosity ([1]; x2 = 0.4001): 1.171 ± 0.019 mPa·s | mass density ([1]; x2 = 0.4999): 968.1 ± 0.9 kg/m3 | viscosity ([1]; x2 = 0.4999): 1.085 ± 0.017 mPa·s | mass density ([1]; x2 = 0.5999): 963 ± 0.9 kg/m3 | viscosity ([1]; x2 = 0.5999): 1.006 ± 0.016 mPa·s | mass density ([1]; x2 = 0.699): 958 ± 1 kg/m3 | viscosity ([1]; x2 = 0.699): 0.947 ± 0.015 mPa·s | mass density ([1]; x2 = 0.8001): 953.2 ± 1 kg/m3 | viscosity ([1]; x2 = 0.8001): 0.897 ± 0.015 mPa·s | mass density ([1]; x2 = 0.9001): 948.6 ± 1.1 kg/m3 | viscosity ([1]; x2 = 0.9001): 0.855 ± 0.014 mPa·s | mass density ([1]; x2 = 0.95): 946.4 ± 1.1 kg/m3 | viscosity ([1]; x2 = 0.95): 0.84 ± 0.014 mPa·s

CN(C)C=O [dimethylformamide]
mass density [2]: 944.2 ± 1.1 kg/m3 | viscosity [2]: 0.799 ± 0.013 mPa·s

CNC=O [N-methylformamide]
mass density [2]: 998.8 ± 0.7 kg/m3 | viscosity [2]: 1.681 ± 0.026 mPa·s

CN(C)C=O [dimethylformamide] + O
mass density ([1]; x1 = 0.05): 996 ± 0.7 kg/m3 | viscosity ([1]; x1 = 0.05): 1.31 ± 0.021 mPa·s | mass density ([1]; x1 = 0.1001): 996.8 ± 0.7 kg/m3 | viscosity ([1]; x1 = 0.1001): 1.728 ± 0.027 mPa·s | mass density ([1]; x1 = 0.2): 995.1 ± 0.7 kg/m3 | viscosity ([1]; x1 = 0.2): 2.346 ± 0.036 mPa·s | mass density ([1]; x1 = 0.299): 991.6 ± 0.7 kg/m3 | viscosity ([1]; x1 = 0.299): 2.491 ± 0.038 mPa·s | mass density ([1]; x1 = 0.3998): 984.4 ± 0.8 kg/m3 | viscosity ([1]; x1 = 0.3998): 2.273 ± 0.035 mPa·s | mass density ([1]; x1 = 0.4997): 975.9 ± 0.8 kg/m3 | viscosity ([1]; x1 = 0.4997): 1.878 ± 0.029 mPa·s | mass density ([1]; x1 = 0.5993): 968.4 ± 0.9 kg/m3 | viscosity ([1]; x1 = 0.5993): 1.532 ± 0.024 mPa·s | mass density ([1]; x1 = 0.6995): 960.7 ± 1 kg/m3 | viscosity ([1]; x1 = 0.6995): 1.243 ± 0.02 mPa·s | mass density ([1]; x1 = 0.8): 954.9 ± 1 kg/m3 | viscosity ([1]; x1 = 0.8): 1.045 ± 0.017 mPa·s | mass density ([1]; x1 = 0.8991): 949.1 ± 1.1 kg/m3 | viscosity ([1]; x1 = 0.8991): 0.901 ± 0.015 mPa·s | mass density ([1]; x1 = 0.9488): 946.9 ± 1.1 kg/m3 | viscosity ([1]; x1 = 0.9488): 0.843 ± 0.014 mPa·s

CNC=O [N-methylformamide] + O
mass density ([1]; x1 = 0.0504): 1003.2 ± 0.7 kg/m3 | viscosity ([1]; x1 = 0.0504): 1.174 ± 0.019 mPa·s | mass density ([1]; x1 = 0.1001): 1008.9 ± 0.7 kg/m3 | viscosity ([1]; x1 = 0.1001): 1.422 ± 0.022 mPa·s | mass density ([1]; x1 = 0.2): 1014.6 ± 0.8 kg/m3 | viscosity ([1]; x1 = 0.2): 1.793 ± 0.028 mPa·s | mass density ([1]; x1 = 0.2998): 1016.3 ± 0.8 kg/m3 | viscosity ([1]; x1 = 0.2998): 2.001 ± 0.031 mPa·s | mass density ([1]; x1 = 0.4002): 1015.1 ± 0.8 kg/m3 | viscosity ([1]; x1 = 0.4002): 2.067 ± 0.032 mPa·s | mass density ([1]; x1 = 0.4996): 1012.2 ± 0.7 kg/m3 | viscosity ([1]; x1 = 0.4996): 2.04 ± 0.031 mPa·s | mass density ([1]; x1 = 0.5996): 1009.4 ± 0.7 kg/m3 | viscosity ([1]; x1 = 0.5996): 1.961 ± 0.03 mPa·s | mass density ([1]; x1 = 0.6994): 1006.1 ± 0.7 kg/m3 | viscosity ([1]; x1 = 0.6994): 1.878 ± 0.029 mPa·s | mass density ([1]; x1 = 0.7999): 1003.7 ± 0.7 kg/m3 | viscosity ([1]; x1 = 0.7999): 1.794 ± 0.028 mPa·s | mass density ([1]; x1 = 0.8983): 1000.9 ± 0.7 kg/m3 | viscosity ([1]; x1 = 0.8983): 1.734 ± 0.027 mPa·s | mass density ([1]; x1 = 0.9498): 999.7 ± 0.7 kg/m3 | viscosity ([1]; x1 = 0.9498): 1.707 ± 0.027 mPa·s
